Reference: PMC12171319, “3‐Oxabicyclo[3.1.1]heptane as an Isostere of meta‐Benzene” (Angewandte Chemie (International Ed. in English), 2025)
≈ marks a conversion by molar mass, not a printed value. Like-named read-outs stand apart in the source and are kept apart here. One block for each compound: values may come before it.

Key:
[1] = Metabolic stability in human liver microsomes; type: in vitro ADME; conditions: both sexes, human; for remaining at 40 min, 2 µM / remaining at 7 min, 2 µM / remaining at […], 2 µM / remaining at 25 min, 2 µM: pH 7.4, Table S7, 2nd batch; for microsomal CLint at 2 μM: read-out: CLint: experimental metabolic stability in human liver microsomes; for remaining at […], 2 µM: 15 min
Method: 9. Metabolic Stability in Human Liver Microsomes
The objective of this study was to determine the metabolic stability of 3 test articles (EN300- […]
in human liver microsomes at five-time points over 40 minutes using HPLC-MS. Metabolic stability is defined as the percentage of parent compound lost over time in the presence of a metabolically active test system.
Potassium phosphate monobasic (Bio-Basic, Canada; Lot #N9016010)
Potassium phosphate dibasic (Bio-Basic, Canada; Lot #MA7100050) […]
Glucose-6-phosphate dehydrogenase from baker's yeast, type XV (Sigma-Aldrich, USA; Cat […]
D-Glucose-6-phosphate sodium salt (Sigma-Aldrich, USA; Cat #G7879-1G)
NADPH tetrasodium salt (BLD Pharmatech Ltd., Cat #BD116582)
Verapamil hydrochloride (Sigma Aldrich, USA; Cat #V4629)
Niclosamide (Sigma-Aldrich, USA; Cat #N3510)
DMSO stock solutions of the tested compounds 20 mM
Gradient HPLC system (Shimadzu)
Triple quadrupole mass-detector API 3000 with TurboIonSpray Ion Source (AB Sciex, Canada) […]
Multichannel pipettors 1-30 µL, 2-125 µL, 30-850 µL (Thermo Scientific) […]
All measurements were performed using the Shimadzu HPLC system including vacuum degasser, gradient pumps, reverse phase HPLC column, column oven, and autosampler. Mass spectrometric analysis was performed using an API 3000 mass spectrometer from Applied Biosystems/MDS Sciex (AB Sciex) with Turbo V ion source and TurboIonspray interface. The […]
and system control were performed using Analyst 1.6.3 software from AB Sciex.
Microsomal incubations were carried out in 96-well plates in 5 aliquots of 30 μL each (one for each time point). Liver microsomal incubation medium comprised of phosphate buffer (100 mM, pH 7.4), MgCl2 (3.3 mM), NADPН (3 mM), glucose-6-phosphate (5.3 mM), glucose-6-phosphate dehydrogenase (0.67 units/mL) with 0.42 mg of liver microsomal protein per mL. In the control reactions, the NADPH-cofactor system was substituted with phosphate buffer. Test compounds […]
100 rpm. Five-time points over 40 minutes were analyzed. The reactions were stopped by adding 5 volumes of acetonitrile with internal standard to incubation aliquots, followed by protein sedimentation by centrifuging at 5500 rpm for 5 min. Each reaction was performed in duplicates.
Supernatants were analyzed using the HPLC system coupled with a tandem mass spectrometer.
The elimination constant (kel), half-life (t1/2), and intrinsic clearance (Clint) were determined in a plot of […] versus time, using linear regression analysis:1
1 In order to indicate the quality of the linear regression analysis, the R2 (determination coefficient) values are provided.
In some cases, the last time point is excluded from the calculations to ensure acceptable logarithmic linearity of decay.

[2] = test system: Hedgehog signaling pathway; conditions: Mus musculus
[3] = Kinetic solubility in phosphate-buffered saline, pH 7.4; type: physicochemical; conditions: 25 °C, pH 7.4, aqueous buffer, kinetic from dmso stock; for solubility at 2 h: PBS solubility
Method: page 239: 7. […] The data […] analysis software. […] page 240: Methods Kinetic solubility assay was performed according to Enamine's aqueous solubility SOP. Briefly, […] theoretical concentration of 400 μM in duplicates in phosphate-buffered saline pH 7.4 […] The experimental compound dilutions in PBS were further allowed to equilibrate at 25 °C on a thermostatic shaker for two hours and then filtered through HTS filter plates using a vacuum manifold. The filtrates of test […] prepared to theoretical concentrations of 0 μM (blank), 10 μM, 25 μM, 50 μM, 100 μM, and 200 […] Ondansetron was used as a reference compound to control proper assay performance. 200 μL of each sample was transferred to a 96-well plate and measured in the 230-550 nm range with a 5 nm step. The concentrations of compounds in PBS filtrate are calculated using a dedicated Microsoft Excel calculation script. Proper absorbance wavelengths for calculations are selected for each compound manually based on absorbance maximums (absolute absorbance unit values for the minimum and maximum concentration points within the 0 - 3 OD range). Each final dataset is visually evaluated by the operator, and goodness of fit (R2) is calculated for each calibration curve. […] close to the upper limit of the range may have higher actual solubility (e.g. 5'-deoxy-5- fluorouridine). The calibration curves are shown in Appendix*. […] Compound ID PBS solubility, pH 7.4, μM SE […] Ondansetron 128 126 127** 1.1 EN300-7362818 6 6 6 0.2 (Sonidegib) BCHep-Sonidegib (50) 5 3 4 0.9 Table S3. 2nd batch PBS solubility, pH 7.4, μM Compound ID SE […] Ondansetron 124 124 124** 0.1 EN300-45381956 (51) 34 34 34 0.2 *Goodness of fit (R2) in all titration curves as well as the variations between repeat measurements indicates a high quality of the experimental data in the current batch of test articles. **Ondansetron solubility data are consistent with those previously obtained. […]

[4] = Table S5, 2nd batch
[5] = physchem
[6] = in vitro; conditions: human; for efflux ratio at 90 min, 10 µM: Caco-2, pH 7.4; for Papp A→B at 90 min, 10 µM: Caco-2, pH 7.4, Papp (AB); for Papp B→A at 90 min, 10 µM: Caco-2, pH 7.4, Papp (BA)
[7] = human liver microsomes, pH 7.4, human liver microsomes, read-out: t1/2: experimental half-time of a metabolic decomposition
[8] = liver microsomes, 2 µM, read-out: % Remaining, Mean of 2
[9] = NIH3T3, read-out: pIC50, Hedgehog signaling pathway, experiment with EN300-45381956 (51) (converted), calculated from IC50
[10] = pH 7.4, LogD, pH 7.4 (overall of 3 incubations)
[11] = pH 7.4, logD (7.4): experimental distribution coefficient in n-octanol/phosphate-buffered saline, pH 7.4
[12] = Mean, 10 µM, 90 min, no verapamil
[13] = replicate 1, 10 µM, 90 min, no verapamil
[14] = replicate 2, 10 µM, 90 min, no verapamil

- remaining at 40 min, 2 µM ([1]; human liver microsomes, no NADPH, read-out: % Remaining without cofactor, Mean of 2): 104%
- half-life at 2 μM [1, 7]: 61 min
- k el at 2 µM ([1]; human liver microsomes, pH 7.4, Table S7, 2nd batch): 0.000183 s⁻¹
- half-life at 2 μM ([1]; human liver microsomes, pH 7.4, Table S7, 2nd batch, read-out: t1/2): 60.5 min
- microsomal CLint at 2 μM ([1]; human liver microsomes, pH 7.4): 28 µL/min/mg
- remaining at 7 min, 2 µM ([1]; liver microsomes, 2 µM): 96%
- remaining at […], 2 µM ([1]; liver microsomes, 2 µM): 89%
- remaining at 25 min, 2 µM ([1]; liver microsomes, 2 µM): 77%
- remaining at 40 min, 2 µM [1, 8]: 64%
- IC50 ([2]; NIH3T3, read-out: IC50 (HH signal): inhibition of the Hedgehog signaling pathway, Gli reporter NIH3T3 cell line): 96 nM
- IC50 [2, 9]: 100 nM
- solubility kinetic at 2 h [3]: 34 µM (≈ 16.7 µg/mL)
- solubility at 2 h ([3]; pH 7.4, Incubation 1): 34 µM (≈ 16.7 µg/mL)
- solubility at 2 h ([3]; pH 7.4, Incubation 2): 34 µM (≈ 16.7 µg/mL)
- solubility at 2 h ([3]; pH 7.4, Mean): 34 µM (≈ 16.7 µg/mL)
- D ([4]; incubation 1): 7.16E+04
- D ([4]; incubation 2): 6.24E+04
- D ([4]; incubation 3): 6.33E+04
- logD at 1 h ([5]; pH 7.4, LogD, pH 7.4): ≥ 4.5
- logD at 1 h [5, 10]: ≥ 4.5
- logD at 1 h [5, 11]: ≥ 4
- efflux ratio at 90 min, 10 µM [6]: 1.5
- Papp A→B at 90 min, 10 µM ([6]; Mean): 5.4 ×10⁻⁶ cm/s
- Papp A→B at 90 min, 10 µM ([6]; replicate 1): 6.3 ×10⁻⁶ cm/s
- Papp A→B at 90 min, 10 µM ([6]; replicate 2): 4.5 ×10⁻⁶ cm/s
- Papp B→A at 90 min, 10 µM ([6]; Mean): 8 ×10⁻⁶ cm/s
- Papp B→A at 90 min, 10 µM ([6]; replicate 1): 7.3 ×10⁻⁶ cm/s
- Papp B→A at 90 min, 10 µM ([6]; replicate 2): 8.7 ×10⁻⁶ cm/s
- recovery at 90 min, 10 µM ([6]; Caco-2, pH 7.4, Recovery A-B in presence of Verapamil, Mean): 51%
- recovery at 90 min, 10 µM ([6]; Caco-2, pH 7.4, Recovery A-B in presence of Verapamil, replicate 1): 53%
- recovery at 90 min, 10 µM ([6]; Caco-2, pH 7.4, Recovery A-B in presence of Verapamil, replicate 2): 49%
- recovery at 90 min, 10 µM ([6]; Caco-2, pH 7.4, Recovery A-B, Mean): 43%
- recovery at 90 min, 10 µM ([6]; Caco-2, pH 7.4, Recovery A-B, replicate 1): 44%
- recovery at 90 min, 10 µM ([6]; Caco-2, pH 7.4, Recovery A-B, replicate 2): 43%
- recovery at 90 min, 10 µM ([6]; Caco-2, pH 7.4, Recovery B-A in presence of Verapamil, Mean): 77%
- recovery at 90 min, 10 µM ([6]; Caco-2, pH 7.4, Recovery B-A in presence of Verapamil, replicate 1): 69%
- recovery at 90 min, 10 µM ([6]; Caco-2, pH 7.4, Recovery B-A in presence of Verapamil, replicate 2): 86%
- recovery at 90 min, 10 µM ([6]; Caco-2, pH 7.4, Recovery B-A, Mean): 70%
- recovery at 90 min, 10 µM ([6]; Caco-2, pH 7.4, Recovery B-A, replicate 1): 71%
- recovery at 90 min, 10 µM ([6]; Caco-2, pH 7.4, Recovery B-A, replicate 2): 69%
Compound: CC1CN(c2ccc(NC(=O)C34COCC(c5ccc(OC(F)(F)F)cc5)(C3)C4)cn2)CC(C)O1 (stereo not drawn) [Compound 51]

- half-life at 2 μM [1, 7]: 104 min
- microsomal CLint at 2 μM ([1]; human liver microsomes, pH 7.4): 16 µL/min/mg
- remaining at 7 min, 2 µM ([1]; liver microsomes, 2 µM): 100%
- remaining at […], 2 µM ([1]; liver microsomes, 2 µM): 94%
- remaining at 25 min, 2 µM ([1]; liver microsomes, 2 µM): 89%
- remaining at 40 min, 2 µM [1, 8]: 77%
- remaining at 40 min, 2 µM ([1]; liver microsomes, no NADPH, read-out: % Remaining without cofactor, Mean of 2): 103%
- k el at 2 µM ([1]; liver microsomes, pH 7.4, Table S7, 2nd batch): 0.000117 s⁻¹
- half-life at 2 μM ([1]; liver microsomes, pH 7.4, Table S7, 2nd batch, read-out: t1/2): 104 min
- IC50 ([2]; NIH3T3, read-out: IC50, Hedgehog signaling pathway, mean ± SD from 2 independent experiments, experiment with BCH-Sonidegib (50)): 6.4 ± 0.5 nM
- IC50 ([2]; NIH3T3, read-out: IC50, Hedgehog signaling pathway, reference compound in the experiment with EN300-45381956 (51)): 1.46 nM
- IC50 [2, 9]: 1.58 nM
- solubility kinetic at 2 h [3]: 6 µM (≈ 2.91 µg/mL)
- solubility at 2 h ([3]; pH 7.4, Incubation 1): 6 µM (≈ 2.91 µg/mL)
- solubility at 2 h ([3]; pH 7.4, Incubation 2): 6 µM (≈ 2.91 µg/mL)
- solubility at 2 h ([3]; pH 7.4, Mean): 6 µM (≈ 2.91 µg/mL)
- D ([4]; incubation 1): 5.61E+04
- D ([4]; incubation 2): 5.60E+04
- D ([4]; incubation 3): 6.79E+04
- logD at 1 h ([5]; pH 7.4, LogD, pH 7.4): ≥ 4.5
- logD at 1 h [5, 10]: ≥ 4.5
- logD at 1 h [5, 11]: ≥ 4
- efflux ratio at 90 min, 10 µM [6]: 0.3
- Papp A→B at 90 min, 10 µM [6, 12]: 2.8 ×10⁻⁶ cm/s
- Papp A→B at 90 min, 10 µM [6, 13]: 2.9 ×10⁻⁶ cm/s
- Papp A→B at 90 min, 10 µM [6, 14]: 2.7 ×10⁻⁶ cm/s
- Papp B→A at 90 min, 10 µM [6, 12]: 0.9 ×10⁻⁶ cm/s
- Papp B→A at 90 min, 10 µM [6, 13]: 1 ×10⁻⁶ cm/s
- Papp B→A at 90 min, 10 µM [6, 14]: 0.9 ×10⁻⁶ cm/s
- recovery at 90 min, 10 µM ([6]; Caco-2, pH 7.4, Recovery A-B in presence of Verapamil, Mean, with verapamil): 65%
- recovery at 90 min, 10 µM ([6]; Caco-2, pH 7.4, Recovery A-B in presence of Verapamil, replicate 1, with verapamil): 67%
- recovery at 90 min, 10 µM ([6]; Caco-2, pH 7.4, Recovery A-B in presence of Verapamil, replicate 2, with verapamil): 63%
- recovery at 90 min, 10 µM ([6]; Caco-2, pH 7.4, Recovery A-B, Mean, no verapamil): 36%
- recovery at 90 min, 10 µM ([6]; Caco-2, pH 7.4, Recovery A-B, replicate 1, no verapamil): 35%
- recovery at 90 min, 10 µM ([6]; Caco-2, pH 7.4, Recovery A-B, replicate 2, no verapamil): 37%
- recovery at 90 min, 10 µM ([6]; Caco-2, pH 7.4, Recovery B-A in presence of Verapamil, Mean, with verapamil): 61%
- recovery at 90 min, 10 µM ([6]; Caco-2, pH 7.4, Recovery B-A in presence of Verapamil, replicate 1, with verapamil): 63%
- recovery at 90 min, 10 µM ([6]; Caco-2, pH 7.4, Recovery B-A in presence of Verapamil, replicate 2, with verapamil): 60%
- recovery at 90 min, 10 µM ([6]; Caco-2, pH 7.4, Recovery B-A, Mean, no verapamil): 45%
- recovery at 90 min, 10 µM ([6]; Caco-2, pH 7.4, Recovery B-A, replicate 1, no verapamil): 46%
- recovery at 90 min, 10 µM ([6]; Caco-2, pH 7.4, Recovery B-A, replicate 2, no verapamil): 43%
Compound: Cc1c(C(=O)Nc2ccc(N3C[C@@H](C)O[C@@H](C)C3)nc2)cccc1-c1ccc(OC(F)(F)F)cc1 [Sonidegib]
